Biological target: Cut2 (cutinase 2) (Pyricularia oryzae, UniProt G4MZV6)
Conditions: 12.5 nM Cut2, 0-8 mM substrate; assay buffer 25 mM NaH2PO4, pH 7.2

Cut2 (cutinase 2), sequence (G4MZV6 19-214 limits assumed): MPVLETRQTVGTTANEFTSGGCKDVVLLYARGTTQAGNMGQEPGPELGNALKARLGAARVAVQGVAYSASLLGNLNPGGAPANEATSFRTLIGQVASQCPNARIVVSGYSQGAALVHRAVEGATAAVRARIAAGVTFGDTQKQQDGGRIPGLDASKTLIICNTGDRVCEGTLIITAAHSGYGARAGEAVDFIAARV

CCCC(=O)Oc1ccc([N+](=O)[O-])cc1 [p-nitrophenyl butyrate]
kcat/Km: We determined kcat/Km for our recombinant Cut2 with p-nitrophenylbutyrate as substrate

Source: PMC4855151 (Scientific Reports, 2016)
